The structures appear in SMILES notation.

For assay [1], the target named is T1, Neprilysin (Homo sapiens, UniProt P08473). Description: Inhibition of NEP (unknown origin).
Assay [2] addresses T1, Neprilysin. As to the kind of experiment: Binding affinity to NEP (unknown origin) assessed as inhibition constant.
Assay [3] has as its target T2, Type-2 angiotensin II receptor (Homo sapiens, UniProt P50052).
T2 sequence (P50052 whole entry): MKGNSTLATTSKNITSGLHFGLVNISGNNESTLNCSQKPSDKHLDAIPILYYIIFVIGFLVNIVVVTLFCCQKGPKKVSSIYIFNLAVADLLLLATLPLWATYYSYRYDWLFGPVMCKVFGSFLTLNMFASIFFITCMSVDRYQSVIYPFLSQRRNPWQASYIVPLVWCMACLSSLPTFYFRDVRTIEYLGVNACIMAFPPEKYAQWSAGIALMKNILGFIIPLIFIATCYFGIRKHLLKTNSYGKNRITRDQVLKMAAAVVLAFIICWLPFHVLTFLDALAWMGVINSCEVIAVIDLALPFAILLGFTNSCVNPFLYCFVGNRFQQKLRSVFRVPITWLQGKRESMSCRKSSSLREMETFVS
Description: Inhibition of Angiotensin-2 receptor (unknown origin).

T1 sequence (P08473 whole entry): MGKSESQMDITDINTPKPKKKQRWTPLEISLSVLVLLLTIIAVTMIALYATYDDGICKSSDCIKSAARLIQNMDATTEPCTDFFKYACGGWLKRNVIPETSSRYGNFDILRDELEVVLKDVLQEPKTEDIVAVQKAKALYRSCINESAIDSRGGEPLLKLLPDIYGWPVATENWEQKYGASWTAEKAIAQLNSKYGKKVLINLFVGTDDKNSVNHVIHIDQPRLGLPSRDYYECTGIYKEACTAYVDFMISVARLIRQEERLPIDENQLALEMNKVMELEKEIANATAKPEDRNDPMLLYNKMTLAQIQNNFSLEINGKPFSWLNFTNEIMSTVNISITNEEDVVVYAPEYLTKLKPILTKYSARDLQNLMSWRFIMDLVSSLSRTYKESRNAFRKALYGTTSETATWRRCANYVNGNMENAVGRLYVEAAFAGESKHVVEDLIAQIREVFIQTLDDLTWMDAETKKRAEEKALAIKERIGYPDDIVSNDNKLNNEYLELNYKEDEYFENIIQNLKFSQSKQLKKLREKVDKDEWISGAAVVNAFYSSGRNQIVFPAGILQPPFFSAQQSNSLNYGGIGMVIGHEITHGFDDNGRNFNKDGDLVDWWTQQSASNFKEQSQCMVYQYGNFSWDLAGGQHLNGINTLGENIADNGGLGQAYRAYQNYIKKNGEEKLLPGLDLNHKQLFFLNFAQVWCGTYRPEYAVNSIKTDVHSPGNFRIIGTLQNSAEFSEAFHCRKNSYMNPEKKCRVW

Regarding `SC[C@@H](Cc1ccccc1)c1nc2cnccc2[nH]1`, at Neprilysin [1], the IC50 came to 40 nM. This lies in the double-digit nanomolar range.
As for `COC(c1ccccc1)c1cnc(C(CS)Cc2ccccc2)[nH]1` (stereo not drawn), it took 1700 nM to reach half-maximal inhibition against Neprilysin [1] (IC50).
In the case of `SC[C@@H](Cc1ccc(-c2ccccc2)cc1)c1nc2cnccc2[nH]1`, the IC50 against Neprilysin [1] is 30 nM.
Take `COCCOC[C@H](CC1(C(=O)N[C@H]2CC[C@@H](C(=O)O)CC2)CCCC1)C(=O)O` [CANDOXATRILAT]: at Neprilysin [2], the Ki was determined as 6.1 nM.
The same measure, in the same setting: for `COc1cc(/C=C2\CCC/C(=C\c3ccc(O)c(OC)c3)C2=O)ccc1O` [CYCLOVALONE] the value was 0.64 nM.
With `O=C(N[C@H]1CCS[C@H]2CCC[C@@H](C(=O)O)N2C1=O)[C@@H](S)Cc1ccccc1` [OMAPATRILAT], the Ki at Neprilysin [2] came to 0.45 nM. At Neprilysin [1], this compound returned an IC50 of 5 nM.
Regarding `N[C@@H](Cc1ccc(Oc2cc(I)c(O)c(I)c2)c(I)c1)C(=O)O` [REVERSE TRIIODOTHYRONINE], the IC50 in assay [3] came out at 29800 nM.

(Values after ChEMBL document CHEMBL6078628, “A perspective on the development of small molecular neprilysin inhibitors (NEPi) with emphasis on cardiorenal disease” (Eur J Med Chem, 2024).)
